Like-named read-outs stand apart in the source and are kept apart here.
Tests used:
[1] = tested on: HCV GT1a(H77) replicon; assay: HCV replicon luciferase reporter assay, genotype 1a; format: cell-based, HCV genotype 1a; details: Hepatitis C virus, 72 h, HUH-7 cells, Renilla luciferase, 3 days incubation
Outline: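 Huh-7 cells stably carried a GT1a(H77) Renilla luciferase replicon with NS3 P1496L and NS5A S2204I adaptive mutations. Luminescence was read after 2 h with 7.5 μM EnduRen, and EC50 came from a four-parameter logistic fit; CC50 came from multiplexed Cell Titer-Blue (8 h).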

[2] = tested on: HCV GT1b(Con1) replicon; assay: HCV replicon luciferase reporter assay, genotype 1b; format: cell-based, HCV genotype 1b; details: Hepatitis C virus, 72 h, HUH-7 cells, Renilla luciferase, 3 days incubation
Outline: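 HUH-7 cells stably carrying a Con1 GT1b replicon with Renilla luciferase and Ser1179Ile adaptive mutation; 3.0×10^3 cells/well, DMEM 4% FCS, 0.5% DMSO, twenty-point 3-fold titration, 3 days 37 °C. Luminescence 2 h after 7.5 μM EnduRen; EC50 by four-parameter logistic fit. CC50 from multiplexed Cell Titer-Blue fluorescence (8 h).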

Structure (SMILES) | EC50 ([1]; read-out: LE_1a (EC50, range)) [nM] | EC50 ([2]; read-out: LE_1b (EC50, range)) [nM] | EC50 ([1]; read-out: LE_1a (EC50)) [nM] | EC50 ([2]; read-out: LE_1b (EC50)) [nM]
CC(C)Oc1ccc(-c2cc(O[C@@H]3C[C@H]4C(=O)N[C@]5(C(=O)NS(=O)(=O)C6(C)CC6)C[C@H]5/C=C\CC[C@@H](C)C[C@@H](C)[C@H](NC(=O)OC(C)(C)C(F)(F)F)C(=O)N4C3)cc(-c3nccs3)n2)cc1 [Compound 1007, 1,1,1-trifluoro-2-methylpropan-2-yl ((2R,6S,7R,9R,13aS,14aR,16aS,Z)-2-((2-(4-isopropoxyphenyl)-6-(thiazol-2-yl)pyridin-4-yl)oxy)-7,9-dimethyl-14a-(((1-methylcyclopropyl)sulfonyl)carbamoyl)-5,16-dioxo-1,2,3,5,6,7,8,9,10,11,13a,14,14a,15,16,16a-hexadecahydrocyclopropa[e]pyrrolo[1,2-a][1,4]diazacyclopentadecin-6-yl)carbamate] | 1.01 to 5 | 1.01 to 5 | – | –
CC(C)Oc1ccc(-c2cc(O[C@@H]3C[C@H]4C(=O)N[C@]5(C(=O)NS(=O)(=O)C6(C)CC6)C[C@H]5/C=C\CC[C@@H](C)C[C@@H](C)[C@H](NC(=O)OC(C)(C)C(F)(F)F)C(=O)N4C3)cc(-c3ccncc3)n2)cc1 [Compound 1009, 1,1,1-trifluoro-2-methylpropan-2-yl ((2R,6S,7R,9R,13aS,14aR,16aS,Z)-2-((6-(4-isopropoxyphenyl)-[2,4′-bipyridin]-4-yl)oxy)-7,9-dimethyl-14a-(((1-methylcyclopropyl)sulfonyl)carbamoyl)-5,16-dioxo-1,2,3,5,6,7,8,9,10,11,13a,14,14a,15,16,16a-hexadecahydrocyclopropa[e]pyrrolo[1,2-a][1,4]diazacyclopentadecin-6-yl)carbamate] | 1.01 to 5 | 1.01 to 5 | – | –
CC(C)Oc1ccc(-c2cc(Cl)cc(O[C@@H]3C[C@H]4C(=O)N[C@]5(C(=O)NS(=O)(=O)C6(C)CC6)C[C@H]5/C=C\CC[C@@H](C)C[C@@H](C)[C@H](NC(=O)OC(C)(C)C(F)(F)F)C(=O)N4C3)n2)cc1 [Compound 1027, 1,1,1-trifluoro-2-methylpropan-2-yl ((2R,6S,7R,9R,13aS,14aR,16aS,Z)-2-((4-chloro-6-(4-isopropoxyphenyl)pyridin-2-yl)oxy)-7,9-dimethyl-14a-(((1-methylcyclopropyl)sulfonyl)carbamoyl)-5,16-dioxo-1,2,3,5,6,7,8,9,10,11,13a,14,14a,15,16,16a-hexadecahydrocyclopropa[e]pyrrolo[1,2-a][1,4]diazacyclopentadecin-6-yl)carbamate] | 1.01 to 5 | 1.01 to 5 | – | –
CC(C)Oc1ccc(-c2cc(Cl)cc(O[C@@H]3C[C@H]4C(=O)N[C@]5(C(=O)NS(=O)(=O)C6(C)CC6)C[C@H]5/C=C\CC[C@H](C)C[C@@H](C)[C@H](NC(=O)OC(C)(C)C)C(=O)N4C3)n2)cc1 [Compound 1030, tert-butyl ((2R,6S,7R,9S,13aS,14aR,16aS,Z)-2-((4-chloro-6-(4-isopropoxyphenyl)pyridin-2-yl)oxy)-7,9-dimethyl-14a-(((1-methylcyclopropyl)sulfonyl)carbamoyl)-5,16-dioxo-1,2,3,5,6,7,8,9,10,11,13a,14,14a,15,16,16a-hexadecahydrocyclopropa[e]pyrrolo[1,2-a][1,4]diazacyclopentadecin-6-yl)carbamate] | 35 to 359 | 35 to 359 | – | –
CC(C)Oc1ccc(-c2cc(O[C@@H]3C[C@H]4C(=O)N[C@]5(C(=O)NS(=O)(=O)C6(C)CC6)C[C@H]5/C=C\CC[C@@H](C)C[C@@H](C)[C@H](NC(=O)OC5(C(F)(F)F)CCCOC5)C(=O)N4C3)cc(-c3cncs3)n2)cc1 (stereo partly drawn) [Compound 1017, 3-(trifluoromethyl)tetrahydro-2H-pyran-3-yl ((2R,6S,7R,9R,13aS,14aR,16aS,Z)-2-((2-(4-isopropoxyphenyl)-6-(thiazol-5-yl)pyridin-4-yl)oxy)-7,9-dimethyl-14a-(((1-methylcyclopropyl)sulfonyl)carbamoyl)-5,16-dioxo-1,2,3,5,6,7,8,9,10,11,13a,14,14a,15,16,16a-hexadecahydrocyclopropa[e]pyrrolo[1,2-a][1,4]diazacyclopentadecin-6-yl)carbamate] | 0.51 to 1 | 0.51 to 1 | 0.95 | 0.82
C[C@@H]1CC/C=C\[C@@H]2C[C@@]2(C(=O)NS(=O)(=O)C2(C)CC2)NC(=O)[C@@H]2C[C@@H](Oc3ccnc(-c4nccs4)c3)CN2C(=O)[C@@H](NC(=O)OC(C)(C)C(F)(F)F)[C@H](C)C1 [Compound 1025, 1,1,1-trifluoro-2-methylpropan-2-yl ((2R,6S,7R,9R,13aS,14aR,16aS,Z)-7,9-dimethyl-14a-(((1-methylcyclopropyl)sulfonyl)carbamoyl)-5,16-dioxo-2-((2-(thiazol-2-yl)pyridin-4-yl)oxy)-1,2,3,5,6,7,8,9,10,11,13a,14,14a,15,16,16a-hexadecahydrocyclopropa[e]pyrrolo[1,2-a][1,4]diazacyclopentadecin-6-yl)carbamate] | 1.01 to 5 | 0.51 to 1 | – | –
C[C@@H]1CC/C=C\[C@@H]2C[C@@]2(C(=O)NS(=O)(=O)C2(C)CC2)NC(=O)[C@@H]2C[C@@H](Oc3cc(-c4cccnc4)nc(-c4nccs4)c3)CN2C(=O)[C@@H](NC(=O)OC2(C(F)(F)F)CCCOC2)[C@H](C)C1 (stereo partly drawn) [Compound 1049, 3-(trifluoromethyl)tetrahydro-2H-pyran-3-yl ((2R,6S,7R,9R,13aS,14aR,16aS,Z)-7,9-dimethyl-14a-(((1-methylcyclopropyl)sulfonyl)carbamoyl)-5,16-dioxo-2-((6-(thiazol-2-yl)-[2,3′-bipyridin]-4-yl)oxy)-1,2,3,5,6,7,8,9,10,11,13a,14,14a,15,16,16a-hexadecahydrocyclopropa[e]pyrrolo[1,2-a][1,4]diazacyclopentadecin-6-yl)carbamate] | 5.01 to 35 | 1.01 to 5 | – | –
CC(C)Oc1ccc(-c2cc(O[C@@H]3C[C@H]4C(=O)N[C@]5(C(=O)NS(=O)(=O)C6(C)CC6)C[C@H]5/C=C\CC[C@@H](C)C[C@@H](C)[C@H](NC(=O)OC(C)(C)C(F)(F)F)C(=O)N4C3)cc(-c3cncs3)n2)cc1 [Compound 1003, 1,1,1-trifluoro-2-methylpropan-2-yl ((2R,6S,7R,9R,13aS,14aR,16aS,Z)-2-((2-(4-isopropoxyphenyl)-6-(thiazol-5-yl)pyridin-4-yl)oxy)-7,9-dimethyl-14a-(((1-methylcyclopropyl)sulfonyl)carbamoyl)-5,16-dioxo-1,2,3,5,6,7,8,9,10,11,13a,14,14a,15,16,16a-hexadecahydrocyclopropa[e]pyrrolo[1,2-a][1,4]diazacyclopentadecin-6-yl)carbamate] | 1.01 to 5 | 1.01 to 5 | – | –
C[C@H]1CC/C=C\[C@@H]2C[C@@]2(C(=O)NS(=O)(=O)C2(C)CC2)NC(=O)[C@@H]2C[C@@H](Oc3cc(-c4nccs4)nc(-c4nccs4)c3)CN2C(=O)[C@@H](NC(=O)OC(C)(C)C(F)(F)F)[C@H](C)C1 [Compound 1024, 1,1,1-trifluoro-2-methylpropan-2-yl ((2R,6S,7R,9S,13aS,14aR,16aS,Z)-2-((2,6-di(thiazol-2-yl)pyridin-4-yl)oxy)-7,9-dimethyl-14a-(((1-methylcyclopropyl)sulfonyl)carbamoyl)-5,16-dioxo-1,2,3,5,6,7,8,9,10,11,13a,14,14a,15,16,16a-hexadecahydrocyclopropa[e]pyrrolo[1,2-a][1,4]diazacyclopentadecin-6-yl)carbamate] | 1.01 to 5 | 0.51 to 1 | – | –
COc1cccc(-c2cc(O[C@@H]3C[C@H]4C(=O)N[C@]5(C(=O)NS(=O)(=O)C6(C)CC6)C[C@H]5/C=C\CCC(C)C[C@@H](C)[C@H](NC(=O)OC(C)(C)C(F)(F)F)C(=O)N4C3)cc(-c3ccc(OC(C)C)cc3)n2)n1 (stereo in doubt) [Compound 1012, 1,1,1-trifluoro-2-methylpropan-2-yl ((2R,6S,7R,9R,13aS,14aR,16aS,Z)-2-((6-(4-isopropoxyphenyl)-6′-methoxy-[2,2′-bipyridin]-4-yl)oxy)-7,9-dimethyl-14a-(((1-methylcyclopropyl)sulfonyl)carbamoyl)-5,16-dioxo-1,2,3,5,6,7,8,9,10,11,13a,14,14a,15,16,16a-hexadecahydrocyclopropa[e]pyrrolo[1,2-a][1,4]diazacyclopentadecin-6-yl)carbamate] | 5.01 to 35 | 5.01 to 35 | – | –
CC[C@@H]1C[C@H](C)CC/C=C\[C@@H]2C[C@@]2(C(=O)NS(=O)(=O)C2CC2)NC(=O)[C@@H]2C[C@@H](Oc3cc(-c4ccc(C(F)(F)F)cc4)nc(-c4nccs4)c3)CN2C(=O)[C@H]1NC(=O)OC(C)(C)C(F)(F)F [Compound 1053, 1,1,1-trifluoro-2-methylpropan-2-yl ((2R,6S,7R,9R,13aS,14aR,16aS,Z)-14a-((cyclopropylsulfonyl)carbamoyl)-7-ethyl-9-methyl-5,16-dioxo-2-((2-(thiazol-2-yl)-6-(4-(trifluoromethyl)phenyl)pyridin-4-yl)oxy)-1,2,3,5,6,7,8,9,10,11,13a,14,14a,15,16,16a-hexadecahydrocyclopropa[e]pyrrolo[1,2-a][1,4]diazacyclopentadecin-6-yl)carbamate] | 1.01 to 5 | 1.01 to 5 | – | –

Reference: US9334279B2, “Hepatitis C virus inhibitors” (BRISTOL-MYERS SQUIBB COMPANY, priority 2012, dated 2016)
